# Assays:
# iNKT cells = assay: In vitro CFSE-dilution proliferation of iNKT cells in splenocyte culture; type: cell-based, WT C57BL/6 mice; details: for percent of iNKT cells proliferated (CFSE dilution): three days of culture
# Procedure: (§1) Even activation of both iNKT and B cells by the weak agonist, soluble βGlcCer was enhanced by encapsulation of this glycolipid in nanoparticles (βGC-NanoP). Nanoparticles lacking glycolipids were not stimulatory for either iNKT or B cells in this assay (data not shown). Nanoparticles were assessed by Mass Spectrometry and Scanning Electron Microscopy for lipid content and particle size. In the study, spleen cells were isolated, then labeled with carboxyfluorescein diacetate succinimidyl ester (CFSE) and cultured for 3 days with soluble αGalCer, soluble βGlcCer, αGC-NanoPs, or βGC-NanoPs at concentrations of glycolipid noted. […] FIG. 2B is a graph showing a summary of the data in FIG. 2A. […] FIGS. 2C and 2D show the percentage of B220+ cells that dilute CFSE after 3 days of in vitro culture with soluble αGalCer and αGC-NanoP (FIG. 2C), or soluble βGlcCer and βGC-NanoP (FIG. 2D). Results shown are representative of 2 experiments, duplicate wells. *=p≤0.05 as compared to soluble glycolipid.
# Total spleen cells from WT C57BL/6 mice were removed, a single cell suspension was created, and red blood cells were lysed. Splenocytes were labeled with carboxyfluorescein succinimidyl ester (CFSE) using standard procedures and then cultured at 2×10^6 cells/well in a 96 well flat bottom tissue culture plate. At the initiation of this culture, cells were coincubated with 10 pg/ml or 10 ng/ml of αGalCer, βGlcCer, αGC-NanoP, βGC-NanoP, or left in media only. After three days of culture, cells were removed from the wells, labeled with fluorescently tagged lineage specific markers (anti-B220 for B cells and anti-TcRβ plus CD1d-tetramer for iNKT cells) and assessed for cell type specific CFSE dilution by FACS analysis. […] In comparison, 39% of iNKT cells proliferated in response to αGC-NanoP at the 10 ng/ml dose and 35% responded vigorously to the 10 pg/ml dose.
# splenic B cells = assay: In vitro CFSE-dilution proliferation of B220+ B cells in splenocyte culture; type: cell-based, WT C57BL/6 mice; details: over the doses tested (10 pg/ml, 10 ng/ml), three days
# Procedure: as §1
# Total spleen cells from WT C57BL/6 mice were removed, a single cell suspension was created, and red blood cells were lysed. […] After three days of culture, cells were removed from the wells, labeled with fluorescently tagged lineage specific markers (anti-B220 for B cells and anti-TcRβ plus CD1d-tetramer for iNKT cells) and assessed for cell type specific CFSE dilution by FACS analysis. […]
molecule,measurement,setting,value
"CCCCCCCCCCCCCCCCCCCCCCCCCC(=O)N[C@@H](CO[C@H]1O[C@H](CO)[C@H](O)[C@H](O)[C@H]1O)[C@H](O)[C@H](O)CCCCCCCCCCCCCC [αGalCer, αGalactosylceramide]",percent of iNKT cells proliferated (CFSE dilution),iNKT cells; 10 pg/ml glycolipid,not responsive
same,percent of iNKT cells proliferated (CFSE dilution),iNKT cells; 10 ng/ml glycolipid,44%
same,B cell proliferation (CFSE dilution),splenic B cells,only to the higher doses
βGlucosylceramide [βGlcCer],stimulation of iNKT cells,"iNKT cells; either dose tested (10 pg/ml, 10 ng/ml), three days",neither βGlcCer alone nor βGC-NanoP were stimulatory
same,B cell proliferation (CFSE dilution),splenic B cells,not to the doses tested

# Source: patent US10881720B2, “Nanoparticles for immune stimulation” (THE BOARD OF REGENTS OF THE UNIVERSITY OF TEXAS SYSTEM, priority 2014, dated 2021)
